In US20250288647A1, “ANGIOGENESIS INHIBITING PEPTIDE AND USE THEREOF” (SEOUL NATIONAL UNIVERSITY HOSPITAL, priority 2021, published 2025):

B1: KAI1 protein: KAI1 protein (CD82), which is known to bind to VEGF and PDGF; comparative group (protein, UniProt P27701 1-267, looked up)
CD82 antigen: MGSACIKVTKYFLFLFNLIFFILGAVILGFGVWILADKSSFISVLQTSSSSLRMGAYVFIGVGAVTMLMGFLGCIGAVNEVRCLLGLYFAFLLLILIAQVTAGALFYFNMGKLKQEMGGIVTELIRDYNSSREDSLQDAWDYVQAQVKCCGWVSFYNWTDNAELMNRPEVTYPCSCEVKGEEDNSLSVRKGFCEAPGNRTQSGNHPEDWPVYQEGCMEKVQAWLQENLGIILGVGVGVAIIELLGMVLSICLCRHVHSEDYSKVPKY

Columns and labels:
PDGF receptor [1] = assay: Surface plasmon resonance (SPR) binding test, Biacore T200; conditions: PDGF receptor 400 ng/ml, CM5 chip
Protocol: (§1) It was confirmed that the prepared peptides have binding affinity to VEGF receptors and PDGF receptors using surface plasmon resonance (SPR). More specifically, SPR was performed using a Biacore T200 (GE Healthcare) device and a CM5 chip (GE Healthcare, Cat #. BR-1005-30), and the obtained results were analyzed using BIAevaluation software version 3.0 (GE Healthcare). For a binding test, a concentration of 200 ng/mL was used for the VEGF receptor and a concentration of 400 ng/ml was used for the PDGF receptor.

VEGF receptor [2] = assay: as above; conditions: VEGF receptor 200 ng/mL, CM5 chip
Protocol: as §1

PDGF receptor [3] = assay: Real-time degree of binding using BLtz instrument (ForteBio); conditions: FIGS. 2A to 2I
Source text: (§2) FIG. 2 is a view showing the results of confirming the degree of binding of the peptides using BLtz system according to an exemplary embodiment of the present invention to a VEGF receptor and a PDGF receptor. FIG. 2A is a view showing the results of Peptides 1 to 3, FIG. 2B is a view showing the results of Peptide 8, FIG. 2C is a view showing the results of Peptide 9, FIG. 2D is a view showing the results of Peptide 10, FIG. 2E is a view showing the results of Peptide 11, FIG. 2F is a view showing the results of Peptide 12, FIG. 2G is a view showing the results of Peptide 13, FIG. 2H is a view showing the results of Peptide 14, and FIG. 2I is a view showing the results of Peptide 15.
(§3) In addition, the degree of binding between the peptides and the receptors was confirmed in real time using a BLtz instrument (ForteBio).

VEGF receptor [4] = assay: as above; conditions: FIGS. 2A to 2I
Source text: as §2, §3

[5] = system: MDA-MB-231 breast cancer cell line; assay: Anticancer effect: MDA-MB-231 cells mixed with peptide and Matrigel injected subcutaneously, size of cancer; assay type: in vivo, NSG mice; conditions: 14 days after subcutaneous injection with 2×10^6 MDA-MB-231 cells and Matrigel, compared to PBS control, FIG. 3
Protocol: (§4) As a control, an equal amount of phosphate buffered saline (PBS) was mixed with Matrigel and injected. After the mice were euthanized 14 days later, cancer tissue was obtained and the size of cancer was measured. All animal handling and procedures were performed in accordance with research protocols approved by the Animal Care and Use Committee of Seoul National University Hospital. Thereafter, in all experiments, statistical significance between two groups was confirmed by a Student's t-test, and when P<0.05, it was determined to be statistically significant. Then, the obtained cancer tissue was fixed using a 4% paraformaldehyde solution, embedded using paraffin, and then cut to a thickness of […] to prepare a tissue section. The prepared tissue section was then stained using a CD31 antibody (Abcam) that specifically binds to CD31, a blood vessel-specific gene, and DAPI.

CD31 = CD31 staining of cancer tissue sections (angiogenesis in cancer tissue); assay type: in vivo, NSG mice; conditions: tissue sections of cancer tissue obtained at 14 days, FIG. 4
Protocol: as §4

[6] = system: mice with oxygen-induced retinopathy; assay: Oxygen-induced retinopathy mice, intravitreal injection, isolectin staining, area of neovascular tufts; assay type: in vivo; conditions: 1 μL intravitreal, right eye, 5 days after injection, FIGS. 5 and 6
Protocol: Two days later, for the prepared mice with retinopathy, 1 μL of phosphate buffer solution, Peptide 1, Peptide 4, and KAI1 protein (CD82), which is known to bind to VEGF and PDGF, were intravitreally injected to the right eye of each of the mice, respectively. Mice were euthanized 5 days after injection and enucleated eyes were prepared. The prepared enucleated eye was immunostained using 5 μg/mL Alexa Fluor 594 isolectin GS-IB4 conjugate (Invitrogen), and then observed using a fluorescence microscope. Thereafter, the area of neovascular tufts was quantified as a percentage of the total retina using Image J (NIH).

Molecule | binding to the PDGF receptor (SPR) (PDGF receptor [1]) | binding to the VEGF receptor (SPR) (VEGF receptor [2]) | degree of binding to the PDGF receptor (BLtz) (PDGF receptor [3]) | degree of binding to the VEGF receptor (BLtz) (VEGF receptor [4]) | size of cancer [5] | CD31 antibody staining (fluorescence intensity) in cancer tissue (CD31) | angiogenesis inhibitory effect in retinopathy (area of neovascular tufts as percentage of total retina) [6]
NHPEDWPVYQEGC [Peptide 15] | bound strongly | bound strongly | stably bound | stably bound |  |  | 
NRPEVTAPASCEVKGAAANS [Peptide 4] |  |  |  |  | size of cancer was remarkably increased | remarkably high | did not show an angiogenesis inhibitory effect
NRPEVTAPASCEVKGEEDNS [Peptide 2] | bound weakly | bound weakly | weak binding affinity | weak binding affinity |  |  | 
NRPEVTYPCSCEVKGAAANS [Peptide 3] |  |  | weak binding affinity | weak binding affinity |  |  | 
NRPEVTYPCSCEVKGEEDNS [Peptide 1] | bound strongly | bound strongly | highest binding affinity | highest binding affinity | size of cancer was inhibited compared to the control | almost no portion stained with a CD31 antibody | angiogenesis inhibitory effect similar to that of the comparative group administered the KAI1 protein
SFYNWTDNAELMN [Peptide 9] | bound strongly | bound strongly | stably bound | stably bound |  |  | 
B1 |  |  |  |  |  |  | angiogenesis inhibitory effect
